Measured values from patent US20250057740A1, “Stable Stannous Oral Care Product” (Colgate-Palmolive Company, priority 2018, published 2025).

Key:
[1] = Stability of stannous ions over 35 days at 60° C. (FIG. 3)
Description: Stability of stannous ions is assessed over a period of 35 days.

[2] = aqueous Sn (II) with the named additive, 35 days
Description: Stability of Sn (II) in aqueous solutions, and the ability of various additives to affect this stability, is assessed.

[3] = in water; cited from earlier work

O=P([O-])([O-])OP(=O)([O-])[O-].[Na+].[Na+].[Na+].[Na+] [TSPP, tetrasodium pyrophosphate]
oxidative stability of stannous ([1]; SnF2 in the presence of the named additive): no oxidative stability is observed

O=P(O)(O)O [phosphoric acid]
stannous oxidized ([1]; stannous fluoride in the presence of the named additive): 8-9%

O.O.O.O.O=P([O-])([O-])[O-].O=P([O-])([O-])[O-].[Zn+2].[Zn+2].[Zn+2] [Zinc phosphate, zinc phosphate]
prevention of the stannous-to-stannic oxidation [2]: positive impact | Ksp [3]: ~10^−35

[F][Sn][F] [stannous fluoride, reference compound]
stannous oxidized ([1]; stannous fluoride alone): ~80%
